Assay results: patent US20060073216A1, “Compositions and methods for control of bovine mastitis” (Solution Biosciences, Inc., priority 2002, published 2006)

Assay: Solubility in water
Assay type: physicochemical
Settings: water at 75° F. (ca. 24° C.), expressed as Cl2

SMILES	solubility in water
CC1(C)C(=O)N(Br)C(=O)N1Br [1,3-dibromo-5,5dimethylhydantoin, 1,3-dibromo-5,5-dimethylhydantoin]	about 405 ppm
CC1(C)C(=O)N(Cl)C(=O)N1Br [N,N′-bromochloro-5,5-dimethylhydantoin]	about 890 ppm
